# Measured values taken from patent publication US5217961A, “Condensed quinoline system N-glycosides” (Mect Corporation, priority 1988, dated 1993).
# Tests used:
# P-388 = assay: Effect on prolongation of life span in cancer implanted mouse (P-388); assay type: in vivo, CDF mouse; settings: day 1 and day 5, P-388 i.p.; for responders at 25 mg/kg / responders at 100 mg/kg / responders at 200 mg/kg / responders at 400 mg/kg / cure (mice cured / mice in group) / responders at 12.5 mg/kg / responders at 50 mg/kg: 6 mice/group; for responders at 25 mg/kg / responders at 100 mg/kg / responders at 200 mg/kg / responders at 400 mg/kg / responders at 12.5 mg/kg / responders at 50 mg/kg: read-out: cure (mice cured / mice in group) (converted)
# Description: Animal used: CDF mouse (6 mice/group)
# Number of implanted cells: 10^6 cells/mouse
# Day of administration: Day 1 and Day 5
# Dosage: LD50 or 400 mg/kg/day at the maximum
# KB cells = assay: Function for inhibiting multiplication of KB cell (in vitro test); assay type: cell-based, human; settings: compound added day 1, cells counted day 4, effective when ED50 < 4 μg/ml, 4320 min
# Description: KB cells, carcinomatous cell tumors, were transferred to in vitro floatation incubator systems, and added respectively with compounds of Examples 1 to 33. The results of cultivation added with these compounds were compared with the results of the control which was not added with any compound.
# Cell used: KB Cell (Originating from human mouth epidermal cancer)
# Culture medium: Eagles minimal essential medium (MEM) supplemented with 10% calf serum
# Cultivation: 37° C. carbon dioxide gas incubator (5% CO2)
# Day 0: KB cells were diluted in the culture medium to adjust the KB cell density to 2×10^4 /ml. Three ml of the cell suspension was inoculated in each of 60 mm plastic dishes. Two dishes per standard dosage were used.
# Day 1: Test compound was added to the medium so that the final concentrations were set to 100, 30, 10, 3 and 1 μg/ml.
# Day 4: Cells were scraped off from the dish using trypsin, and the cell number was countered using a Corter counter.
# In generally accordance with the stipulations set forth by the National Cancer Institute (NCI) U.S.A., the concentration of compound necessary for exerting 50% growth inhibition (ED50) compared to the contral was determined.
# [1] = J. Med. Chem. vol.17, 922 (1974); cited from earlier work
# [2] = Mus musculus, P388, ip, 25 mg/kg
# [3] = Mus musculus, P388, ip, 50 mg/kg, effective when T/C >= 120%, read-out: Ratio of Life Prolongation (%) (T/C %)
# [4] = Mus musculus, P388, ip, 100 mg/kg
# [5] = Mus musculus, P388, ip, 200 mg/kg
# [6] = Mus musculus, P388, ip, 400 mg/kg
# [7] = 12.5 mg/kg, effective when T/C >= 120%
# [8] = 25 mg/kg, effective when T/C >= 120%
# [9] = 50 mg/kg, effective when T/C >= 120%
# [10] = Mus musculus, P388, ip, 12.5 mg/kg
# [11] = Mus musculus, P388, ip, 50 mg/kg
compound,measurement,setting,value
COc1cc(O)ccc1Nc1c2ccccc2nc2c1[nH]c1ccccc12 [Compound 20],responders at 25 mg/kg,P-388; [2],16.7%
same,response vs control in vivo at 50 mg/kg,P-388; [3],202%
"COc1cc(NS(C)(=O)=O)ccc1Nc1c2ccccc2nc2c1[nH]c1ccc(NS(C)(=O)=O)cc12 [Compound 26, 2-methanesulfonamide-6-(4-methanesulfonamide-2-methoxyanilino)indolo[3,2-b]quinoline]",response vs control in vivo at 50 mg/kg,P-388; [3],143%
"COc1cc(NS(C)(=O)=O)ccc1Nc1c2cccc(C)c2nc2c1oc1cc(C)ccc12 [Compound 29, 6-(4-methanesulfonamide-2-methoxyanilino)-3,10-dimethylbenzofurano[3,2-b]quinoline]",responders at 100 mg/kg,P-388; [4],16.7%
same,responders at 200 mg/kg,P-388; [5],16.7%
"COc1cc(NS(C)(=O)=O)ccc1Nc1c2ccccc2nc2c1sc1cccc(C)c12 [Compound 33, 6-(4-methanesulfonamide-2-methoxyanilino)-1-methylbenzothieno[3,2-b]quinoline]",responders at 200 mg/kg,P-388; [5],16.7%
same,responders at 400 mg/kg,P-388; [6],16.7%
COc1cc(NC(C)=O)ccc1Nc1c2ccccc2nc2c1[nH]c1ccccc12 [Compound 15],responders at 100 mg/kg,P-388; [4],16.7%
"COc1cc(NS(C)(=O)=O)ccc1Nc1c2ccccc2nc2c1[nH]c1ccc(NC3OC(CO)C(O)C(O)C3O)cc12 (centres unmarked) [Compound 24, N-{4-[(7-(glycosyl-1-amino)-10H-indolo[3,2-b]quinoline-11-yl)amino]-3-methoxyphenyl} methanesulfonamide]","Conc. (ED50), concentration necessary for exerting 50% growth inhibition of KB cells",KB cells,< 0.3 µg/mL
same,cure (mice cured / mice in group),P-388; 12.5 mg/kg,2/6
same,Ratio of Life Prolongation (%) (T/C %),P-388; [7],213%
same,Ratio of Life Prolongation (%) (T/C %),P-388; [8],145%
same,Ratio of Life Prolongation (%) (T/C %),P-388; [9],90%
"COc1cc(NS(C)(=O)=O)ccc1Nc1c2ccccc2nc2c1oc1cc(C)ccc12 [Compound 31, 6-(4-methanesulfonamide-2-methoxyanilino)-3-methylbenzofurano[3,2-b]quinoline]",responders at 200 mg/kg,P-388; [5],16.7%
same,responders at 400 mg/kg,P-388; [6],16.7%
"COc1cc(NS(C)(=O)=O)ccc1Nc1c2cccc(C)c2nc2c1oc1cccc(C)c12 [Compound 28, 6-(4-methanesulfonamide-2-methoxyanilino)-1,10-dimethylbenzofurano[3,2-b]quinoline]",response vs control in vivo at 200 mg/kg,"P-388; Mus musculus, P388, ip, 200 mg/kg, effective when T/C >= 120%, read-out: Ratio of Life Prolongation (%) (T/C %)",103%
"COc1cc(NS(C)(=O)=O)ccc1Nc1c2ccccc2nc2c1[nH]c1ccc([N+](=O)[O-])cc12 [Compound 18, 6-(4-methanesulfonamide-2-methoxyanilino)-2-nitroindolo[3,2-b]quinoline]",responders at 12.5 mg/kg,P-388; [10],16.7%
same,response vs control in vivo at 12.5 mg/kg,"P-388; Mus musculus, P388, ip, 12.5 mg/kg, effective when T/C >= 120%, read-out: Ratio of Life Prolongation (%) (T/C %)",164%
same,response vs control in vivo at 25 mg/kg,"P-388; Mus musculus, P388, ip, 25 mg/kg, effective when T/C >= 120%, read-out: Ratio of Life Prolongation (%) (T/C %)",131%
same,response vs control in vivo at 50 mg/kg,P-388; [3],70%
COc1cc(OC(C)=O)ccc1Nc1c2ccccc2nc2c1[nH]c1ccccc12 [Compound 21],responders at 50 mg/kg,P-388; [11],16.7%
same,response vs control in vivo at 100 mg/kg,"P-388; Mus musculus, P388, ip, 100 mg/kg, effective when T/C >= 120%, read-out: Ratio of Life Prolongation (%) (T/C %)",212%
"COc1cc(NS(C)(=O)=O)ccc1Nc1c2ccccc2nc2c1[nH]c1ccc(NC3OC(COC(C)=O)C(OC(C)=O)C(OC(C)=O)C3OC(C)=O)cc12 (centres unmarked) [Compound 23, N-{4-[(7-(2,3,4,6-tetra-O-acetylglycosyl-1-amino)-10H-indolo[3,2-b]quinoline-11-yl)amino]-3-methoxyphenyl} methanesulfonamide]","Conc. (ED50), concentration necessary for exerting 50% growth inhibition of KB cells",KB cells,< 0.3 µg/mL
same,cure (mice cured / mice in group),P-388; 12.5 mg/kg,2/6
same,Ratio of Life Prolongation (%) (T/C %),P-388; [7],300%
same,cure (mice cured / mice in group),P-388; 25 mg/kg,1/6
same,Ratio of Life Prolongation (%) (T/C %),P-388; [8],148%
same,Ratio of Life Prolongation (%) (T/C %),P-388; [9],58%
"COc1cc(NS(C)(=O)=O)ccc1Nc1c2ccccc2nc2c1[nH]c1ccc(F)cc12 [Compound 19, 2-fluoro-6-(4-methanesulfonamide-2-methoxyanilino)indolo[3,2-b]quinoline]",responders at 12.5 mg/kg,P-388; [10],50%
same,responders at 25 mg/kg,P-388; [2],33.3%
same,response vs control in vivo at 50 mg/kg,P-388; [3],93%
COc1cc(NS(C)(=O)=O)ccc1Nc1c2ccccc2nc2c1[nH]c1ccc(Cl)cc12 [Compound 12],responders at 25 mg/kg,P-388; [2],16.7%
same,responders at 50 mg/kg,P-388; [11],16.7%
"6-(4-methanesulfonamide-anilino)-indeno[3,2-b]quinoline [Compound 5]","Conc. (ED50), concentration necessary for exerting 50% growth inhibition of KB cells",KB cells,< 0.3 µg/mL
same,Ratio of Life Prolongation (%) (T/C %),P-388; [8],140%
same,Ratio of Life Prolongation (%) (T/C %),P-388; [9],135%
same,Ratio of Life Prolongation (%) (T/C %),"P-388; 100 mg/kg, effective when T/C >= 120%",163%
same,Ratio of Life Prolongation (%) (T/C %),"P-388; 200 mg/kg, effective when T/C >= 120%",172%
same,Ratio of Life Prolongation (%) (T/C %),"P-388; 400 mg/kg, effective when T/C >= 120%",165%
"COc1cc(NS(C)(=O)=O)ccc1Nc1c2c(nc3c(C)cccc13)-c1ccccc1C2 [Compound 2, 6-4-(methanesulfonamide-2-methoxyanilio)-10-methylindeno[3,2-b]quinoline]",responders at 100 mg/kg,P-388; [4],16.7%
"COc1cc(NS(C)(=O)=O)ccc1Nc1c2ccccc2nc2ccccc12 [Amsacrine, N-[4-(9-acridylamino)-3-methoxyphenyl)methanesulfonamide]",carcinostatic function,[1],highest carcinostatic function
"COc1cc(NS(C)(=O)=O)ccc1Nc1c2cccc(C)c2nc2c1[nH]c1cc(C)ccc12 [Compound 11, 6-(4-methanesulfonamide-2-methoxyanilino)-3,10-dimethylindolo[3,2-b]quinoline]",responders at 12.5 mg/kg,P-388; [10],16.7%
same,responders at 25 mg/kg,P-388; [2],33.3%
same,responders at 50 mg/kg,P-388; [11],16.7%
"COc1cc(NS(C)(=O)=O)ccc1Nc1c2cccc(C)c2nc2c1[nH]c1cccc(C)c12 [Compound 10, 6-(4-methanesulfonamide-2-methoxyanilino)-1,10-dimethylindolo[3,2-b]quinoline]",responders at 100 mg/kg,P-388; [4],16.7%
"COc1cc(NS(C)(=O)=O)ccc1Nc1c2ccccc2nc2c1[nH]c1ccc(N)cc12 [Compound 22, 2-amino-6-(4-methanesulfonamide-2-methoxyanilino)indolo[3,2-b]quinoline]",responders at 50 mg/kg,P-388; [11],16.7%
same,response vs control in vivo at 50 mg/kg,P-388; [3],242%
COc1cc(NS(C)(=O)=O)ccc1Nc1c2cccc(C)c2nc2c1[nH]c1ccccc12 [Compound 9],responders at 25 mg/kg,P-388; [2],16.7%
same,responders at 50 mg/kg,P-388; [11],66.7%
COc1cc(NS(C)(=O)=O)ccc1Nc1c2ccccc2nc2c1[nH]c1ccc(NC(C)=O)cc12 [Compound 25],response vs control in vivo at 50 mg/kg,P-388; [3],184%
COC(=O)Nc1ccc(Nc2c3ccccc3nc3c2[nH]c2ccccc23)c(OC)c1 [Compound 14],responders at 100 mg/kg,P-388; [4],16.7%
"COc1cc(NS(C)(=O)=O)ccc1Nc1c2cccc(C)c2nc2c1oc1ccccc12 [Compound 27, 6-(4-methanesulfonamide-2-methoxyanilino)-10-methylbenzofurano[3,2-b]quinoline]",responders at 200 mg/kg,P-388; [5],16.7%
same,responders at 400 mg/kg,P-388; [6],33.3%
same,response vs control in vivo at 400 mg/kg,"P-388; Mus musculus, P388, ip, 400 mg/kg, effective when T/C >= 120%, read-out: Ratio of Life Prolongation (%) (T/C %)",310%
"CN(C)c1cc(NS(C)(=O)=O)ccc1Nc1c2c(nc3ccccc13)-c1ccccc1C2 [Compound 6, 6-(4-methanesulfonamide-2-dimethylaminoanilino)-indeno[3,2-b]quinoline]",responders at 200 mg/kg,P-388; [5],33.3%
"COc1cc(NS(C)(=O)=O)ccc1Nc1c2ccccc2nc2c1[nH]c1cccc(C)c12 [Compound 16, 6-(4-methanesulfonamide-2-methoxyanilino)-1-mehtylindolo[3,2-b]quinoline]",responders at 12.5 mg/kg,P-388; [10],33.3%
same,responders at 25 mg/kg,P-388; [2],33.3%
"COc1cc(NS(C)(=O)=O)ccc1Nc1c2c(nc3c(C)cccc13)-c1c(C)cccc1C2 [Compound 1, 6-4-(methanesulfonamide-2-methoxyanilino)-1,10-dimethylindeno[3,2-b]quinoline]",responders at 100 mg/kg,P-388; [4],16.7%
same,responders at 200 mg/kg,P-388; [5],16.7%
